In BindingDB's records for PubMed 34479036 (n/a, 2021) one finds IC50 data, which are given here for one compound.

In this assay the target is T1, Prostaglandin G/H synthase 2 (Homo sapiens, UniProt P35354).
T1 sequence (P35354 whole entry): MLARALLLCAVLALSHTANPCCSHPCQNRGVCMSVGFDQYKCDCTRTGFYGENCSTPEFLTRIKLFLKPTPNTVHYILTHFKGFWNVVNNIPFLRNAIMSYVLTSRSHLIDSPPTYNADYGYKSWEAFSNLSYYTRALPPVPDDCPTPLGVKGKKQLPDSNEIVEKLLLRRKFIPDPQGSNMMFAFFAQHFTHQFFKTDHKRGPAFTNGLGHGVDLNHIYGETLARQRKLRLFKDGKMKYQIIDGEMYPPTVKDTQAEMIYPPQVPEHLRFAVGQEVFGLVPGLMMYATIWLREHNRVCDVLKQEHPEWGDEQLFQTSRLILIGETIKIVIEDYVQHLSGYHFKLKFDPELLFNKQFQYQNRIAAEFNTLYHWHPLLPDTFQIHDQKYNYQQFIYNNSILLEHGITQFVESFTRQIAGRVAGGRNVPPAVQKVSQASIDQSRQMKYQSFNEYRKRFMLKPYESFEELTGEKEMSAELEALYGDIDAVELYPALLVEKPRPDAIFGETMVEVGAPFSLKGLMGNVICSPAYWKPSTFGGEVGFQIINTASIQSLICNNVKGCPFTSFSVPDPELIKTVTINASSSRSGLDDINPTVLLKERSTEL
The assay is described as follows: Inhibition of COX-2 (unknown origin) by enzyme immune assay.

Compound `C=C1CC[C@@H]2[C@H](CC2(C)C)C(=C)CC[C@H]1O` displayed an IC50 of 88 nM.

Usually IC50 stands for the point on the concentration scale where inhibition reaches its midpoint. The low end stands for higher potency, the high end for lower potency.
